# Laboratory results published in patent publication US20210261512A1, “NOVEL COMPOUNDS” (INFLAZOME LIMITED, priority 2018, published 2021).
# Target: NLRP3 (Homo sapiens, UniProt Q96P20)
# Test: THP-1 cells pyroptosis assay
# Assay type: cell-based
# Parameters: Seed THP-1 cells (25,000 cells/well) containing 1.0 μg/ml LPS; host or cells: THP-1
# Details: LPS 1.0 μg/ml, nigericin 5 μM, resazurin readout, 10 μM top dose (Example 2: top dose of 30 μM)
# Method in brief: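 THP-1 cells (25,000/well) primed with 1 μg/ml LPS in serum-free RPMI, treated with compound (8-point dilution, 10 μM top unless stated; 0.1% DMSO) 3 h at 37°C, then nigericin 5 μM 1 h. Viability read by resazurin (100 μM, 1-2 h) fluorescence; IC50 from 4-parameter fit.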
# Sequence of NLRP3 (Q96P20 whole entry): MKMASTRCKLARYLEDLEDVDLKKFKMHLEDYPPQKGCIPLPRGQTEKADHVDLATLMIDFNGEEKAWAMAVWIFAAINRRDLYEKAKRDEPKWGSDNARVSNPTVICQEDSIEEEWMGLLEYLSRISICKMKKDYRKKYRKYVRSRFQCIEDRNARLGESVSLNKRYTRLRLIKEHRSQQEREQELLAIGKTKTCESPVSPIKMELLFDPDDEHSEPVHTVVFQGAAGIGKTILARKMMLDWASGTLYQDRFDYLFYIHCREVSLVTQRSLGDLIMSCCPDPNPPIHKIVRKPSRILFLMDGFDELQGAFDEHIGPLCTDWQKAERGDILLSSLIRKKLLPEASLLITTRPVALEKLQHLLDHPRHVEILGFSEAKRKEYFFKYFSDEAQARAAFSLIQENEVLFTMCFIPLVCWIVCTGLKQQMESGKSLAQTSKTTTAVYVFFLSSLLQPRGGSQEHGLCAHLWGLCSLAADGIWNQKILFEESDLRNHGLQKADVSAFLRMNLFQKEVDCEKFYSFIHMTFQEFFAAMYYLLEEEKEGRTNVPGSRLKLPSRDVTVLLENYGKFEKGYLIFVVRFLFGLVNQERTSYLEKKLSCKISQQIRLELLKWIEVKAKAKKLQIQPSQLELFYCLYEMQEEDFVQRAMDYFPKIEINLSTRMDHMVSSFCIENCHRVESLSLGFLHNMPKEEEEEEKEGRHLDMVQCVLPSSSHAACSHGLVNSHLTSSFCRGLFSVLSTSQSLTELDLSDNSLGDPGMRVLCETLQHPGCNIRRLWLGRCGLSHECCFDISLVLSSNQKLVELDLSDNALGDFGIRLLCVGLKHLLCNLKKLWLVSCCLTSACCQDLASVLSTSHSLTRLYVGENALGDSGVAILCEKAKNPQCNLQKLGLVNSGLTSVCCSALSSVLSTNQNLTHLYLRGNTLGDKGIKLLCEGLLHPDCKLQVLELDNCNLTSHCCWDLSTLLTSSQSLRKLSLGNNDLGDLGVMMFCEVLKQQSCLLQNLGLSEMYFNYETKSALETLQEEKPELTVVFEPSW
row,SMILES,IC50 [µM]
1,"CN1CCC(N(C)S(=O)(=O)c2nnc(Nc3c4c(cc5c3CCC5)CCC4)[nH]2)CC1 [Example 90, 5-((1,2,3,5,6,7-hexahydro-s-indacen-4-yl)amino)-N-methyl-N-(1-methylpiperidin-4-yl)-4H-1,2,4-triazole-3-sulfonamide]",≤ 10
2,"Cc1ccc(S(=O)(=O)c2nnc(Nc3c4c(cc5c3CCC5)CCC4)[nH]2)cc1 [Example 182, N-(1,2,3,5,6,7-hexahydro-s-indacen-4-yl)-5-tosyl-4H-1,2,4-triazol-3-amine]",≤ 5
3,"O=S(=O)(c1nnc(Nc2c3c(cc4c2CCC4)CCC3)[nH]1)N1CC2(CCNC2)C1 [Example 265, 5-((2,6-diazaspiro[3.4]octan-2-yl)sulfonyl)-N-(1,2,3,5,6,7-hexahydro-s-indacen-4-yl)-4H-1,2,4-triazol-3-amine]",≤ 5
4,"CN(C)CCN(C)CCCS(=O)(=O)c1nnc(Nc2c3c(cc4c2CCC4)CCC3)[nH]1 [Example 52, N^1-(3-((5-((1,2,3,5,6,7-hexahydro-s-indacen-4-yl)amino)-4H-1,2,4-triazol-3-yl)sulfonyl)propyl)-N^1,N^2,N^2-trimethylethane-1,2-diamine]",≤ 5
5,"N#Cc1c2c(c(Nc3nnc(S(=O)(=O)c4ccccc4)[nH]3)c3c1CCC3)CCC2 [Example 323, 8-((5-(phenylsulfonyl)-4H-1,2,4-triazol-3-yl)amino)-1,2,3,5,6,7-hexahydro-5-indacene-4-carbonitrile]",≤ 5
6,"COC1(c2cc(S(=O)(=O)c3nnc(Nc4c5c(cc6c4CCC6)CCC5)[nH]3)nn2C(C)C)COC1 [Example 14, N-(1,2,3,5,6,7-hexahydro-s-indacen-4-yl)-5-((1-isopropyl-5-(3-methoxyoxetan-3-yl)-1H-pyrazol-3-yl)sulfonyl)-4H-1,2,4-triazol-3-amine]",≤ 5

# Now from value to compound:
row,IC50 [µM],SMILES
1,≤ 10,"O=S(=O)(c1nnc(Nc2c3c(cc4c2CCC4)CCC3)[nH]1)C1CCOCC1 [Example 157, N-(1,2,3,5,6,7-hexahydro-s-indacen-4-yl)-5-((tetrahydro-2H-pyran-4-yl)sulfonyl)-4H-1,2,4-triazol-3-amine]"
2,≤ 5,"O=S(=O)(c1nnc(Nc2c3c(cc4c2CCC4)CCC3)[nH]1)N1CCC(O)C1 (centres unmarked) [Example 123, 1-((5-((1,2,3,5,6,7-hexahydro-s-indacen-4-yl)amino)-4H-1,2,4-triazol-3-yl)sulfonyl)pyrrolidin-3-ol]"
3,≤ 5,"O=S(=O)(c1cccc(OC(F)(F)F)c1)c1nnc(Nc2c3c(cc4c2CCC4)CCC3)[nH]1 [Example 367, N-(1,2,3,5,6,7-hexahydro-s-indacen-4-yl)-5-((3-(trifluoromethoxy)phenyl)-sulfonyl)-4H-1,2,4-triazol-3-amine]"
4,≤ 10,"CC(C)c1cc(F)cc(-c2ccncc2)c1Nc1nnc(S(=O)(=O)c2ccccc2)[nH]1 [Example 191, N-(4-fluoro-2-isopropyl-6-(pyridin-4-yl)phenyl)-5-(phenylsulfonyl)-4H-1,2,4-triazol-3-amine]"
5,≤ 1,"O=S(=O)(c1ccccn1)c1nnc(Nc2c3c(cc4c2CCC4)CCC3)[nH]1 [Example 170, N-(1,2,3,5,6,7-hexahydro-s-indacen-4-yl)-5-(pyridin-2-ylsulfonyl)-4H-1,2,4-triazol-5-amine]"
6,≤ 5,"O=S(=O)(NCc1ccncc1)c1nnc(Nc2c3c(cc4c2CCC4)CCC3)[nH]1 [Example 96, 5-((1,2,3,5,6,7-hexahydro-s-indacen-4-yl)amino)-N-(pyridin-4-ylmethyl)-4H-1,2,4-triazole-3-sulfonamide]"
7,≤ 5,"CN1CCN(CCCS(=O)(=O)c2nnc(Nc3c4c(cc5c3CCC5)CCC4)[nH]2)CC1 [Example 51, N-(1,2,3,5,6,7-hexahydro-s-indacen-4-yl)-5-((3-(4-methylpiperazin-1-yl)propyl)sulfonyl)-4H-1,2,4-triazol-3-amine]"
8,≤ 10,"O=S(=O)(c1nnc(Nc2c3c(cc4c2CCC4)CCC3)[nH]1)N1CCC2(CC1)CNC2 [Example 287, 5-((2,7-diazaspiro[35]nonan-7-yl)sulfonyl)-N-(1,2,3,5,6,7-hexahydro-s-indacen-4-yl)-4H-1,2,4-triazol-3-amine]"
